“Also recorded” adds a separate entry of the source.
Assays:
Type in all cases: cell-based, human
THP-1 cells = test: Inhibition of native cell surface fucosylation of THP-1 cells (flow cytometry); details: for CD15 (Le^X) expression / CD15s (sLe^X) expression: 48 hours incubation, 24- and 48-hour timepoints
Description: (§1) For inhibition of cell surface fucosylation, a Symphony A3 (BD Biosciences) was utilized for flow cytometry and the data acquired was analyzed using FlowJo Software (Treestar). Cells were stained using antibodies specific to CD15s (CSLEX1) from BD biosciences and CD15 (LeX) from Biolegend.
The THP-1 cell line (a human monocytic leukemia cell line) was incubated for 48 hours with either Compound 31, Compound 6A, Compound 26, or with 2F-Ac-Fucose (positive control) in RPMI 1640 medium containing 10% FBS. Cells were evaluated by flow cytometry at 24- and 48-hour timepoints for expression of CD15 (Le^X), and CD15s (sLe^X) (FIG. 11).
(§2) In each case, expression of the relevant marker (CD15 or CD15s) was quantified as the median channel fluorescence (MFI), which was then divided by the MFI of Control cells incubated in media containing DMSO at levels equivalent to that for each inhibitor tested (i.e., Y-axis are values of (MFI of inhibitor-treated cells/MFI of DMSO-incubated Control cells)×100%).

HL60 cells = test: Inhibition of native cell surface fucosylation of HL60 cells (flow cytometry); details: 72 hours incubation, 24-, 48-, 72-hour timepoints, 6A and 26 at 64 or 256 uM
Description: as §1
The HL60 cell line (a human promyelocytic leukemia cell line) was incubated for 72 hours in RPMI 1640 medium containing 10% FBS with either 2F-Ac-Fucose (positive control), Compound 6A (64 or 256 uM), or Compound 26 (64 or 256 uM). Cells were evaluated by flow cytometry at 24-, 48-, and 72-hour timepoints of incubation for expression of CD15s (sLe^X) and CD15 (Le^X) (FIG. 10B).
as §2

KG1a cells = test: Inhibition of native cell surface fucosylation of KG1a cells (flow cytometry); details: 72 hours incubation, 24-, 48-, 72-hour timepoints, 64 or 256 uM
Description: as §1
Cells were evaluated at 24-, 48-, and 72-hour timepoints of incubation to assess for effects on expression of CD15s (sLe^X) by flow cytometry (FIG. 10A).
as §2

| Structure (SMILES) | concentration range inhibiting creation of CD15s (THP-1 cells) | concentration range inhibiting synthesis of CD15 (THP-1 cells) | CD15s (sLe^X) synthesis (THP-1 cells; 3 μM) | CD15 (Le^X) synthesis (THP-1 cells; 50 μM) | CD15s (sLe^X) synthesis (THP-1 cells; 50 μM) | CD15 (Le^X) expression (THP-1 cells) | CD15s (sLe^X) expression (THP-1 cells) | CD15 (Le^X) expression (HL60 cells) | CD15s (sLe^X) expression (HL60 cells) | CD15s (sLe^X) expression (KG1a cells) | time by which CD15s inhibition is evident (THP-1 cells) | concentration inhibiting creation of CD15s (THP-1 cells; within 48 hours) |
| --- | --- | --- | --- | --- | --- | --- | --- | --- | --- | --- | --- | --- |
| CC(=O)OC1O[C@@H](C)[C@@H](OC(C)=O)[C@@H](OC(C)=O)[C@@H]1F (stereo partly drawn) [2F-Ac-Fucose, reference compound] | micromolar range | micromolar range | not at 3 μM concentration | inhibition of synthesis | inhibition of synthesis | inhibits synthesis of both markers | inhibits synthesis of both markers | loss of both CD15s and CD15 expression | loss of both CD15s and CD15 expression | – | – | – |
| CC(=O)OC1C(C)OC2Oc3ccc(CC(=O)NCCOCCOCCN)cc3SC2C1OC(C)=O.O=C(O)C(F)(F)F (stereo not drawn) [Compound 6A] | nanomolar range; also recorded: nM range | – | – | – | – | does not inhibit CD15 expression | inhibit creation of CD15s | only inhibited the formation of CD15s | inhibited the formation of CD15s | inhibited CD15s expression similar to that of 2F-Ac-Fucose | ≤ 24 h | – |
| CCOC(=O)C1=C(C23CCC4CC(CC(C4)C2)C3)OC2OC(C)C(OC(C)=O)C(OC(C)=O)C2S1 (stereo not drawn) [Compound 26] | nanomolar range; also recorded: nM range | – | – | – | – | does not inhibit CD15 expression | inhibit creation of CD15s | only inhibited the formation of CD15s | inhibited the formation of CD15s | inhibited CD15s expression similar to that of 2F-Ac-Fucose | ≤ 24 h | – |
| COC(=O)Cc1ccc2c(c1)SC1C(O2)OC(C)C(OC(C)=O)C1OC(C)=O (stereo not drawn) [Compound 31] | – | – | – | – | – | does not inhibit CD15 expression | specificity for inhibiting the creation of CD15s; also recorded: inhibits the creation of CD15s | – | – | – | ≤ 48 h | below 50 uM |

From patent publication US12486298B2, “Fucosyltransferase specific inhibition using fucose mimetics” (THE FLORIDA INTERNATIONAL UNIVERSITY BOARD OF TRUSTEES, priority 2020, dated 2025)
